From US20130261188A1, “Ibuprofen Solid Oral Dosage Composition Comprising a Methacrylic Acid Copolymer” (TEIKOKU PHARMA USA, INC., priority 2012, published 2013)
In brackets after ≈: the same amount, converted by molar mass.

Assay: Solubility of ibuprofen in simulated salivary fluid (excess ibuprofen, sonication, centrifugation, HPLC)
Type: physicochemical
Details: fassgf or other biorelevant, thermodynamic from solid, simulated salivary fluid (19 mM phosphate buffer, 150 mM sodium chloride, pH 6.75), sonicated approximately 1 hour, centrifuged
Protocol: In addition, solubility of ibuprofen was evaluated by adding an excess of ibuprofen to simulated salivary fluid and sonicating for approximately 1 hour. The solution was then centrifuged and injected onto the HPLC.

- solubility: 1800 µg/mL (≈ 8.73 mM)
Structure (SMILES): CC(C)Cc1ccc(C(C)C(=O)O)cc1 (stereo not shown) [ibuprofen, 2-(p-isobutylphenyl)propionic acid]
